Results on two compounds are retold here after patent US20180110871A1, “DUAL DISULFIDE DRUG CONJUGATES” (ENDOCYTE, INC., priority 2015, published 2018).

The structures appear in SMILES notation.

One test has as its system KB cells. As to the kind of experiment: In vitro activity in KB cells (3H-thymidine incorporation). As to conditions: 3H-thymidine incorporation relative to untreated controls. It is filed as cell-based. How it is done:
Cells were seeded in 24-well Falcon plates and allowed to form nearly confluent monolayers overnight. After one rinse with 1 mL of fresh FFRPMI/HIFCS, each well received 1 mL, of medium containing increasing concentrations of test agent (3 wells per sample). Cells were pulsed with targeted agents for 2 hr at 37° C., rinsed 4 times with 0.5 mL of medium, and then chased in 1 mL of fresh medium up to 70 hr. Cells were treated with non-targeted agent EC0347 for a continuous 72 h. Spent medium was aspirated from all wells and replaced with fresh medium containing 5 μCi/mL ^3H-thymidine. After a further 2 hr 37° C. incubation, cells were washed 3 times with 0.5 mL of PBS and then treated with 0.5 mL of ice-cold […] per well. After 15 min, the trichloroacetic acid was aspirated and the cell material solubilized by the addition of 0.5 mL of 0.25 N sodium hydroxide for 15 min. Four hundred and fifty microliters of each solubilized sample were transferred to scintillation vials containing 3 mL of Ecolume scintillation cocktail and then counted in a liquid scintillation counter. Final tabulated results were expressed as the percentage of ^3H-thymidine incorporation relative to untreated controls and IC50 values calculated using Graphpad Prism software.

Another test relates to subcutaneous KB tumors. The test can be described thus: Antitumor activity in KB tumor model. The class given is in vivo, Female Balb/c nu/nu mice. As to conditions: FIG. 1; 2 μmol/kg, single-dose; n=5; mice with subcutaneous KB tumors. As for the experimental part:
Female Balb/c nu/nu mice were fed ad libitum with folate-deficient chow (Harlan diet #TD01013) for the duration of the experiment. KB tumor cells were inoculated subcutaneously at the right flank of each mouse. Mice were dosed after the tumors have reached a range of 107-152 mm^3 through the lateral tail vein under sterile conditions in a volume of 200 μL of phosphate-buffered saline (PBS).
Growth of each s.c. tumor was followed by measuring the tumor two times per week. Tumors were measured in two perpendicular directions using Vernier calipers, and their volumes were calculated as 0.5×L×W^2, where L=measurement of longest axis in mm and W=measurement of axis perpendicular to L in mm.

The term IC50 denotes the concentration needed to halve the response being measured. The compound `CCCC(=O)OCN(C(=O)[C@@H](NC(=O)[C@H]1CCCCN1C)C(C)CC)[C@H](C[C@@H](OC(C)=O)c1nc(C(=O)N[C@@H](Cc2ccc(O)cc2)C[C@H](C)C(=O)NN)cs1)C(C)C` (stereo partly drawn) [EC0347, Tubulysin B Hydrazide, reference compound] displayed an IC50 in the test with KB cells (Homo sapiens, non-targeted agent, continuous 72 h) of 1.5 nM. This counts as single-digit nanomolar.
Turning to `C#CCN(Cc1ccc2nc(N)[nH]c(=O)c2c1)c1ccc(C(=O)N[C@@H](CCC(=O)OCCSSC[C@H](NC(=O)[C@H](CCC(=O)NC[C@H](O)[C@@H](O)[C@H](O)[C@H](O)CO)NC(=O)[C@H](CCC(=O)O)NC(=O)[C@H](CCC(=O)NC[C@H](O)[C@@H](O)[C@H](O)[C@H](O)CO)NC(=O)[C@H](CCC(=O)O)NC(=O)[C@H](CCC(=O)NC[C@H](O)[C@@H](O)[C@H](O)[C@H](O)CO)NC(=O)CCSSCCOC(=O)NNC(=O)[C@@H](C)C[C@H](Cc2ccc(O)cc2)NC(=O)c2csc([C@@H](C[C@H](C(C)C)N(COC(=O)CCC)C(=O)[C@@H](NC(=O)[C@H]3CCCCN3C)C(C)CC)OC(C)=O)n2)C(=O)O)C(=O)O)cc1` (stereo partly drawn) [EC2133], in the test with subcutaneous KB tumors, the “cure (number of mice)” value was 1. Further, the IC50 with KB cells (targeted agents pulsed 2 hr at 37° C., chased up to 70 hr) amounted to 0.8 nM.
